Source: article PMC11995222, “Synthesis and Evaluation of Thiazolidinone-Isatin Hybrids for Selective Inhibition of Cancer-Related Carbonic Anhydrases” (ACS Medicinal Chemistry Letters, 2025)
Entries after “also recorded” stand apart in the source; their conditions may differ.

How the values were obtained:
[1] = Cellular toxicity assay (MTT); assay type: cell-based, human; conditions: human, HuH-7 cells, MTT
HuH-7 cells = assay: Cellular toxicity assay (MTT); assay type: cell-based, human; conditions: HuH-7 cells, 24, 48 and 72 h, up to 100 µM

Structure (SMILES) | CC50 at 24 h ([1]; 24h) | CC50 at 48 h ([1]; 48h) | CC50 at 72 h ([1]; 72h) | toxicity (in words) (HuH-7 cells) | viability at 24 h, 100 µM ([1]; 24h, highest concentration (100 µM), read-out: Percentage of HuH-7 cells viability at the highest compound concentration tested, 24h) | viability at 48 h, 100 µM ([1]; 48h, highest concentration (100 µM), read-out: Percentage of HuH-7 cells viability at the highest compound concentration tested, 48h) | viability at 72 h, 100 µM ([1]; 72h, highest concentration (100 µM), read-out: Percentage of HuH-7 cells viability at the highest compound concentration tested, 72h)
CC[C@@]1(O)C(=O)OCc2c1cc1n(c2=O)Cc2cc3ccccc3nc2-1 [Camptothecin, reference compound] | > 10 µM | 8.5 ± 0.9 µM | 0.5 ± 0.02 µM |  |  |  | 
NS(=O)(=O)c1ccc(/N=C2\S/C(=C3\C(=O)Nc4c(F)cccc43)C(=O)N2C2CC2)cc1 [compound 3h] | > 100 µM | > 100 µM | > 100 µM | weak toxicity; also recorded: nontoxic | 70% | 60% | 60%
